Assay results reported in PMC4298654, “In vivo formation of N-acyl-fumonisin B1” (Mycotoxin Research, 2014).

Assay: In vivo formation of NAFB1 and NAHFB1 in rat kidney and liver (HPLC-ESI-MS/MS)
Design: N-acyl-derivative in tissue sample, analysis a / N-acyl-derivative in tissue sample, analysis b / N-acyl-derivative in tissue sample, mean: unit not given here
Details: 5 days
Source text: The study protocol was approved by the Institutional Animal Care and Use Committee, Richard B. Russell Agricultural Research Center, Athens, GA. Male Sprague–Dawley rats (Harlan Industries, Indianapolis, IN, USA), 7 weeks of age at receipt, were individually housed in stainless steel, wire mesh cages in an environmentally controlled room having a 12-h light/dark cycle. Food (2019 Global Rodent Diet, Teklad, Madison, WI, USA) and fresh tap water were provided ad libitum. After a 1 week acclimation period, the animals were randomly assigned to five groups (n = 2/group) having mean weights of 215 to 216 g (weight range of all animals, 211 to 220 g). For five consecutive days, they were observed, weighed, and given an intraperitoneal injection (ip) of 0 (vehicle), 0.5, 1.0, or 2.0 mg/kg body weight FB1 (provided by R. Eppley, US FDA), 1.0 mg/kg body weight HFB1 (positive control) (Voss et al. [2009]), or vehicle (0.9 % physiological saline). These doses corresponded to 0.69, 1.38, and 2.77 μmol FB1/kg body weight and 2.47 μmol/kg body weight HFB1 per day. In order to compare the effects of FB1 and HFB1, dosages will be expressed as molar concentrations and, on this basis, the high dose of FB1 is roughly equivalent to that of the positive control dose of HFB1. Dosing solutions were sterile filtered and administered at a volume rate of 10 ml/kg body weight. The animals were fasted overnight prior to administration of the final dose. The rats were euthanized (CO2 inhalation and exsanguination) 60 to 90 min following the final dose administration and examined by necropsy. The kidney and liver specimens were fixed in 10 % neutral buffered formalin, processed, and microscopically evaluated without knowledge of the animal’s identity or treatment group. Three representative liver and kidney specimens (100 mg each) were also collected, immediately frozen, and stored (−80 °C) until processed, at which time the tissues were thawed and homogenized in distilled/deionized water (1 ml water/100 mg tissue). The homogenates were lyophilized before they were shipped by overnight courier for the analysis of fumonisin metabolites and sphingolipids.
Lyophilized liver and kidney tissues (100 mg wet weight equivalents) were processed for the quantification of FB1, HFB1, NAFB1, NAHFB1, and sphingolipids. Preparation of the tissue samples was performed according to a previously published method (Harrer et al. [2013]). For the quantification of FB1 and HFB1, a d6-labeled derivative of FB1 (FB1-d6) was used as the internal standard. Synthetic derivatives with a heptadecanoic fatty acid (C17:0) residue were used as internal standards for the quantification of N-acyl-fumonisins and ceramides (N-C17:0-FB1, N-C17:0-HFB1, and N-C17:0-ceramide). The sphingoid bases and their phosphate derivatives were quantified using synthetic derivatives with a C17-acyl-backbone: sphingosine (C17:1), sphingosine-1-phosphate (C17:1), sphinganine (C17:0), sphinganine-1-phosphate (C17:0) as internal standards. The standards were dissolved in methanol:chloroform (2:1, v/v) and then mixed with the tissue samples. The samples spiked with internal standard were kept at room temperature for 30 min before being processed further. The internal standard-spiked samples were first extracted with ethyl acetate, isopropanol, and water (60:30:10, v/v/v) and a second time using methanol, chloroform, and water (60:30:10, v/v/v). The extracts were combined, the solvents removed by evaporation, and the dried samples stored at−80 °C till analyzed.
For the analysis, the samples were reconstituted in a mixture of water, methanol, and tetrahydrofurane (60:24:16, v/v/v). The NAFB1 and NAHFB1 derivatives having the following fatty acyl chain lengths were quantified by HPLC-MS/MS: C16:0, C18:0, C20:0, C22:0, C24:0, C26:0. Furthermore, we also quantified the unsaturated derivatives C24:1 and C26:1. The results are given as the sum of all N-acyl derivatives of FB1 or HFB1. […]

[1] = Kidney, treatment FB1 0,5 mg/kg BW ip
[2] = Kidney, treatment FB1 1 mg/kg BW ip
[3] = Kidney, treatment FB1 2 mg/kg BW ip
[4] = Kidney, treatment HFB1 1 mg/kg BW ip
[5] = Liver, treatment FB1 0,5 mg/kg BW ip
[6] = Liver, treatment FB1 1 mg/kg BW ip
[7] = Liver, treatment FB1 2 mg/kg BW ip
[8] = Liver, treatment HFB1 1 mg/kg BW ip

With `CCCCCCCCCCCCCCCC(=O)NC(C)C(O)CC(O)CCCCC(O)CC(C)CC(OC(=O)CC(CC(=O)O)C(=O)O)C(OC(=O)CC(CC(=O)O)C(=O)O)C(C)CCCC` (stereo not shown) [FB1C16:0] the “N-acyl-derivative in tissue sample, analysis a” value (“N-acyl-derivative … analysis a” below) [1] was 7,4, the “N-acyl-derivative in tissue sample, analysis b” value (from here on “N-acyl-derivative … analysis b”) [1] was 9,1 and the “N-acyl-derivative in tissue sample, mean” value [1] was 8,2. The “N-acyl-derivative … analysis a” value [2] was 14,4, the “N-acyl-derivative … analysis b” value [2] was 12,6 and the “N-acyl-derivative in tissue sample, mean” value [2] was 13,5. The “N-acyl-derivative … analysis a” value [3] was 12,1, the “N-acyl-derivative … analysis b” value [3] was 13,8 and the “N-acyl-derivative in tissue sample, mean” value [3] was 13,0. For the same molecule, the “N-acyl-derivative … analysis a” value [4] was 0,0, the “N-acyl-derivative … analysis b” value [4] was 0,0 and the “N-acyl-derivative in tissue sample, mean” value [4] was 0,0. The “N-acyl-derivative … analysis a” value [5] was 6,8, the “N-acyl-derivative … analysis b” value [5] was 5,1 and the “N-acyl-derivative in tissue sample, mean” value [5] was 6,0. For the same molecule, the “N-acyl-derivative … analysis a” value [6] was 3,9, the “N-acyl-derivative … analysis b” value [6] was 6,4 and the “N-acyl-derivative in tissue sample, mean” value [6] was 5,2. For the same molecule, the “N-acyl-derivative … analysis a” value [7] was 8,4, the “N-acyl-derivative … analysis b” value [7] was 5,9 and the “N-acyl-derivative in tissue sample, mean” value [7] was 7,1. For the same molecule, the “N-acyl-derivative … analysis a” value [8] was 0,0, the “N-acyl-derivative … analysis b” value [8] was 0,0 and the “N-acyl-derivative in tissue sample, mean” value [8] was 0,0.
In the case of `CCCCCCCCCCCCCCCCCC(=O)NC(C)C(O)CC(O)CCCCC(O)CC(C)CC(OC(=O)CC(CC(=O)O)C(=O)O)C(OC(=O)CC(CC(=O)O)C(=O)O)C(C)CCCC` (stereo not shown) [FB1C18:0], the “N-acyl-derivative … analysis a” value [1] is reported as 2,5, the “N-acyl-derivative … analysis b” value [1] is reported as 2,9 and the “N-acyl-derivative in tissue sample, mean” value [1] is reported as 2,7. The “N-acyl-derivative … analysis a” value [2] was 3,8, the “N-acyl-derivative … analysis b” value [2] was 3,1 and the “N-acyl-derivative in tissue sample, mean” value [2] was 3,4. The “N-acyl-derivative … analysis a” value [3] was 4,0, the “N-acyl-derivative … analysis b” value [3] was 2,8 and the “N-acyl-derivative in tissue sample, mean” value [3] was 3,4. For the same molecule, the “N-acyl-derivative … analysis a” value [4] was 0,0, the “N-acyl-derivative … analysis b” value [4] was 0,0 and the “N-acyl-derivative … analysis a” value [5] was 3,1. For the same molecule, the “N-acyl-derivative … analysis b” value [5] was 2,4, the “N-acyl-derivative in tissue sample, mean” value [5] was 2,8 and the “N-acyl-derivative … analysis a” value [6] was 2,0. For the same molecule, the “N-acyl-derivative … analysis b” value [6] was 3,0, the “N-acyl-derivative in tissue sample, mean” value [6] was 2,5 and the “N-acyl-derivative … analysis a” value [7] was 3,0. For the same molecule, the “N-acyl-derivative … analysis b” value [7] was 3,9, the “N-acyl-derivative in tissue sample, mean” value [7] was 3,5 and the “N-acyl-derivative … analysis a” value [8] was 0,0. The “N-acyl-derivative … analysis b” value [8] was 0,0.
With `CCCCCCCCCCCCCCCCCCCC(=O)NC(C)C(O)CC(O)CCCCC(O)CC(C)CC(OC(=O)CC(CC(=O)O)C(=O)O)C(OC(=O)CC(CC(=O)O)C(=O)O)C(C)CCCC` (stereo not shown) [FB1C20:0] the “N-acyl-derivative … analysis a” value [1] was 0,2, the “N-acyl-derivative … analysis b” value [1] was 0,5 and the “N-acyl-derivative in tissue sample, mean” value [1] was 0,4. The “N-acyl-derivative … analysis a” value [2] was 0,2, the “N-acyl-derivative … analysis b” value [2] was 0,0 and the “N-acyl-derivative in tissue sample, mean” value [2] was 0,1. For the same molecule, the “N-acyl-derivative … analysis a” value [3] was 0,0, the “N-acyl-derivative … analysis b” value [3] was 0,6 and the “N-acyl-derivative in tissue sample, mean” value [3] was 0,3. For the same molecule, the “N-acyl-derivative … analysis a” value [4] was 0,0, the “N-acyl-derivative … analysis b” value [4] was 0,0 and the “N-acyl-derivative in tissue sample, mean” value [4] was 0,0. The “N-acyl-derivative … analysis a” value [5] was 0,0, the “N-acyl-derivative … analysis b” value [5] was 0,0 and the “N-acyl-derivative in tissue sample, mean” value [5] was 0,0. For the same molecule, the “N-acyl-derivative … analysis a” value [6] was 0,0, the “N-acyl-derivative … analysis b” value [6] was 0,0 and the “N-acyl-derivative in tissue sample, mean” value [6] was 0,0. The “N-acyl-derivative … analysis a” value [7] was 0,0, the “N-acyl-derivative … analysis b” value [7] was 0,0 and the “N-acyl-derivative in tissue sample, mean” value [7] was 0,0. The “N-acyl-derivative … analysis a” value [8] was 0,0, the “N-acyl-derivative … analysis b” value [8] was 0,0 and the “N-acyl-derivative in tissue sample, mean” value [8] was 0,0.
With `CCCCCCCCCCCCCCCCCCCCCC(=O)NC(C)C(O)CC(O)CCCCC(O)CC(C)CC(OC(=O)CC(CC(=O)O)C(=O)O)C(OC(=O)CC(CC(=O)O)C(=O)O)C(C)CCCC` (stereo not shown) [FB1C22:0] the “N-acyl-derivative … analysis a” value [1] was 0,7, the “N-acyl-derivative … analysis b” value [1] was 0,7 and the “N-acyl-derivative in tissue sample, mean” value [1] was 0,7. The “N-acyl-derivative … analysis a” value [2] was 0,9, the “N-acyl-derivative … analysis b” value [2] was 0,6 and the “N-acyl-derivative in tissue sample, mean” value [2] was 0,7. The “N-acyl-derivative … analysis a” value [3] was 0,9, the “N-acyl-derivative … analysis b” value [3] was 1,4 and the “N-acyl-derivative in tissue sample, mean” value [3] was 1,2. The “N-acyl-derivative … analysis a” value [4] was 0,0, the “N-acyl-derivative … analysis b” value [4] was 0,0 and the “N-acyl-derivative in tissue sample, mean” value [4] was 0,0. The “N-acyl-derivative … analysis a” value [5] was 2,9, the “N-acyl-derivative … analysis b” value [5] was 6,4 and the “N-acyl-derivative in tissue sample, mean” value [5] was 4,7. For the same molecule, the “N-acyl-derivative … analysis a” value [6] was 1,2, the “N-acyl-derivative … analysis b” value [6] was 4,0 and the “N-acyl-derivative in tissue sample, mean” value [6] was 2,6. The “N-acyl-derivative … analysis a” value [7] was 2,9, the “N-acyl-derivative … analysis b” value [7] was 4,6 and the “N-acyl-derivative in tissue sample, mean” value [7] was 3,8. For the same molecule, the “N-acyl-derivative … analysis a” value [8] was 0,0, the “N-acyl-derivative … analysis b” value [8] was 0,0 and the “N-acyl-derivative in tissue sample, mean” value [8] was 0,0.
With `CCCCCCCCCCCCCCCCCCCCCCCC(=O)NC(C)C(O)CC(O)CCCCC(O)CC(C)CC(OC(=O)CC(CC(=O)O)C(=O)O)C(OC(=O)CC(CC(=O)O)C(=O)O)C(C)CCCC` (stereo not shown) [FB1C24:0] the “N-acyl-derivative … analysis a” value [2] was 3,0, the “N-acyl-derivative … analysis b” value [2] was 2,4 and the “N-acyl-derivative in tissue sample, mean” value [2] was 2,7. The “N-acyl-derivative … analysis a” value [3] was 5,0, the “N-acyl-derivative … analysis b” value [3] was 4,4 and the “N-acyl-derivative in tissue sample, mean” value [3] was 4,7. The “N-acyl-derivative … analysis a” value [4] was 0,0, the “N-acyl-derivative … analysis b” value [4] was 0,0 and the “N-acyl-derivative in tissue sample, mean” value [4] was 0,0. For the same molecule, the “N-acyl-derivative … analysis a” value [5] was 11,7, the “N-acyl-derivative … analysis b” value [5] was 12,3 and the “N-acyl-derivative in tissue sample, mean” value [5] was 12,0. For the same molecule, the “N-acyl-derivative … analysis a” value [6] was 2,1, the “N-acyl-derivative … analysis b” value [6] was 7,3 and the “N-acyl-derivative in tissue sample, mean” value [6] was 4,7. The “N-acyl-derivative … analysis a” value [7] was 9,0, the “N-acyl-derivative … analysis b” value [7] was 17,6 and the “N-acyl-derivative in tissue sample, mean” value [7] was 13,3. The “N-acyl-derivative … analysis a” value [8] was 0,0, the “N-acyl-derivative … analysis b” value [8] was 0,0 and the “N-acyl-derivative in tissue sample, mean” value [8] was 0,0.
With `CCCCCCCCC=CCCCCCCCCCCCCCC(=O)NC(C)C(O)CC(O)CCCCC(O)CC(C)CC(OC(=O)CC(CC(=O)O)C(=O)O)C(OC(=O)CC(CC(=O)O)C(=O)O)C(C)CCCC` (stereo not shown) [FB1C24:1] the “N-acyl-derivative … analysis a” value [1] was 3,6, the “N-acyl-derivative … analysis b” value [1] was 3,5 and the “N-acyl-derivative in tissue sample, mean” value [1] was 3,6. For the same molecule, the “N-acyl-derivative … analysis a” value [2] was 4,1, the “N-acyl-derivative … analysis b” value [2] was 4,6 and the “N-acyl-derivative in tissue sample, mean” value [2] was 4,3. For the same molecule, the “N-acyl-derivative … analysis a” value [3] was 5,7, the “N-acyl-derivative … analysis b” value [3] was 4,2 and the “N-acyl-derivative in tissue sample, mean” value [3] was 4,9. The “N-acyl-derivative … analysis a” value [4] was 0,0, the “N-acyl-derivative … analysis b” value [4] was 0,0 and the “N-acyl-derivative in tissue sample, mean” value [4] was 0,0. The “N-acyl-derivative … analysis a” value [5] was 9,2, the “N-acyl-derivative … analysis b” value [5] was 11,8 and the “N-acyl-derivative in tissue sample, mean” value [5] was 10,5. For the same molecule, the “N-acyl-derivative … analysis a” value [6] was 3,4, the “N-acyl-derivative … analysis b” value [6] was 6,3 and the “N-acyl-derivative in tissue sample, mean” value [6] was 4,9. The “N-acyl-derivative … analysis a” value [7] was 9,0, the “N-acyl-derivative … analysis b” value [7] was 11,1 and the “N-acyl-derivative in tissue sample, mean” value [7] was 10,1. For the same molecule, the “N-acyl-derivative … analysis a” value [8] was 0,0, the “N-acyl-derivative … analysis b” value [8] was 0,0 and the “N-acyl-derivative in tissue sample, mean” value [8] was 0,0.
